Measurements reported in ChEMBL document CHEMBL3421589, “Regioselective chemical and rapid enzymatic synthesis of a novel redox – Antiproliferative molecular hybrid” (Eur J Med Chem, 2015).
pIC50: −log10 of the molar value. The source made the active and inactive calls. The calls are words filed in the database; no cut-off is given here.

Key:
T-24 [1] = test: Ratio of Gemcitabine IC50 to Compound IC50 for human T24 cells after 48 hrs by SRB assay; format: functional
[2] = (§1) Cytotoxicity against human T24 cells after 48 hrs by SRB assay; format: functional, cell-based; details: T-24, 48 h
T-24 [3] = test: as §1; format: functional, cell-based
A549 [4] = test: Ratio of Gemcitabine IC50 to Compound IC50 for human A549 cells after 48 hrs by SRB assay; format: functional
A549 [5] = test: Induction of H2O2 level in human A549 cells at 1 uM after 30 mins by flow cytometry; format: functional, cell-based
A549 [6] = test: Cytotoxicity against human A549 cells after 48 hrs by SRB assay; format: functional, cell-based; details: for pIC50: A549, 48 h
MRC5 [7] = test: Cytotoxicity against human MRC5 cells after 48 hrs by SRB assay; format: functional, cell-based; details: for pIC50: MRC5, 48 h
MRC5 [8] = test: Ratio of Gemcitabine IC50 to Compound IC50 for human MRC5 cells after 48 hrs by SRB assay; format: functional
A549 [9] = test: Cytotoxicity against human A549 cells assessed as dose reduction index ratio treated at simultaneous combination at 0.8 fraction inhibition after 48 hrs by SRB assay in presence of alpha-lipoic acid; format: functional
A549 [10] = test: (§2) Cytotoxicity against human A549 cells assessed as inhibition fraction treated at sequential combination LA + compound sequent. compound for 24 hrs, LA + compound for 24 hrs additional, total 48 hrs 2:1 and 5:1 compound to GEM ratio after 48 hrs by SRB assay in presence of GEM; format: functional
A549 [11] = test: Cytotoxicity against human A549 cells assessed as inhibition fraction treated at 2:1 compound to GEM ratio after 48 hrs by SRB assay in presence of GEM; format: functional
A549 [12] = test: Cytotoxicity against human A549 cells assessed as dose reduction index ratio treated at sequential combination at 2:1 compound to GEM ratio after 48 hrs by SRB assay in presence of GEM; format: functional
A549 [13] = test: Cytotoxicity against human A549 cells assessed as inhibition fraction treated at 5:1 compound to GEM ratio after 48 hrs by SRB assay in presence of GEM; format: functional
A549 [14] = test: Induction of H2O2 level in human A549 cells at 1 uM after 5 mins by flow cytometry; format: functional, cell-based
A549 [15] = test: Cytotoxicity against human A549 cells assessed as dose reduction index ratio treated at sequential combination at 5:1 compound to GEM ratio after 48 hrs by SRB assay in presence of GEM; format: functional
A549 [16] = test: Cytotoxicity against human A549 cells treated at 2:1 and 5:1 alpha-lipoic acid to compound ratio after 48 hrs by SRB assay in presence of alpha-lipoic acid; format: functional, cell-based; details: A549, 48 h
MRC5 [17] = test: Cytotoxicity against human MRC5 cells assessed as dose reduction index ratio treated at simultaneous combination at 2:1 alpha-lipoic acid to compound ratio after 48 hrs by SRB assay in presence of alpha-lipoic acid; format: functional
MRC5 [18] = test: Cytotoxicity against human MRC5 cells assessed as dose reduction index ratio treated at sequential combination at 5:1 alpha-lipoic acid to compound ratio after 48 hrs by SRB assay in presence of alpha-lipoic acid; format: functional
MRC5 [19] = test: Cytotoxicity against human MRC5 cells treated at LA + compound sequent. LA for 24 hrs), LA + GEM (24 hrs additional, total 48 hrs) 5:1 alpha-lipoic acid to compound ratio after 48 hrs by SRB assay in presence of alpha-lipoic acid; format: functional, cell-based
A549 [20] = test: as §2, with “combination index” for “inhibition fraction”, “5:1 alpha-lipoic acid to” for “5:1”, “compound” for “compound to GEM”, “alpha-lipoic acid” for “GEM”; format: functional
MRC5 [21] = test: Cytotoxicity against human MRC5 cells assessed as dose reduction index ratio treated at sequential combination at 2:1 alpha-lipoic acid to compound ratio after 48 hrs by SRB assay in presence of alpha-lipoic acid; format: functional
A549 [22] = test: Cytotoxicity against human A549 cells assessed as dose reduction index ratio treated at simultaneous combination at 0.6 fraction inhibition after 48 hrs by SRB assay in presence of alpha-lipoic acid; format: functional
A549 [23] = test: Cytotoxicity against human A549 cells assessed as combination index treated at 2:1 alpha-lipoic acid to compound ratio after 48 hrs by SRB assay in presence of alpha-lipoic acid; format: functional
A549 [24] = test: as §2, with “5:1 alpha-lipoic acid to” for “5:1”, “compound” for “compound to GEM”, “alpha-lipoic acid” for “GEM”; format: functional
A549 [25] = test: Cytotoxicity against human A549 cells assessed as combination index treated at 5:1 alpha-lipoic acid to compound ratio after 48 hrs by SRB assay in presence of alpha-lipoic acid; format: functional
A549 [26] = test: Cytotoxicity against human A549 cells treated at LA + compound sequent. LA for 24 hrs), LA + GEM (24 hrs additional, total 48 hrs) 2:1 alpha-lipoic acid to compound ratio after 48 hrs by SRB assay in presence of alpha-lipoic acid; format: functional, cell-based
A549 [27] = test: Cytotoxicity against human A549 cells assessed as inhibition fraction treated at 5:1 alpha-lipoic acid to compound ratio after 48 hrs by SRB assay in presence of alpha-lipoic acid; format: functional
A549 [28] = test: Cytotoxicity against human A549 cells assessed as inhibition fraction treated at 2:1 alpha-lipoic acid to compound ratio after 48 hrs by SRB assay in presence of alpha-lipoic acid; format: functional
[29] = Cytotoxicity against human T24 cells treated at LA + compound sequent. compound for 24 hrs, LA + compound for 24 hrs additional, total 48 hrs 2:1 and 5:1 alpha-lipoic acid to compound ratio after 48 hrs by SRB assay in presence of alpha-lipoic acid; format: functional, cell-based; details: T-24
A549 [30] = test: Cytotoxicity against human A549 cells assessed as dose reduction index ratio treated at sequential combination at 2:1 alpha-lipoic acid to compound ratio after 48 hrs by SRB assay in presence of alpha-lipoic acid; format: functional
A549 [31] = test: Cytotoxicity against human A549 cells treated at LA + compound sequent. LA for 24 hrs), LA + GEM (24 hrs additional, total 48 hrs) 5:1 alpha-lipoic acid to compound ratio after 48 hrs by SRB assay in presence of alpha-lipoic acid; format: functional, cell-based
A549 [32] = test: Cytotoxicity against human A549 cells assessed as dose reduction index ratio treated at simultaneous combination at 5:1 alpha-lipoic acid to compound ratio after 48 hrs by SRB assay in presence of alpha-lipoic acid; format: functional
[33] = Cytotoxicity against human T24 cells treated at LA + compound sequent. LA for 24 hrs), LA + GEM (24 hrs additional, total 48 hrs) 2:1 alpha-lipoic acid to compound ratio after 48 hrs by SRB assay in presence of alpha-lipoic acid; format: functional, cell-based; details: T-24
[34] = Cytotoxicity against human T24 cells treated at 2:1 and 5:1 alpha-lipoic acid to compound ratio after 48 hrs by SRB assay in presence of alpha-lipoic acid; format: functional, cell-based; details: T-24, 48 h
MRC5 [35] = test: Cytotoxicity against human MRC5 cells assessed as dose reduction index ratio treated at simultaneous combination at 5:1 alpha-lipoic acid to compound ratio after 48 hrs by SRB assay in presence of alpha-lipoic acid; format: functional
MRC5 [36] = test: Cytotoxicity against human MRC5 cells treated at 2:1 and 5:1 alpha-lipoic acid to compound ratio after 48 hrs by SRB assay in presence of alpha-lipoic acid; format: functional, cell-based; details: MRC5, 48 h
[37] = Cytotoxicity against human T24 cells treated at LA + compound sequent. LA for 24 hrs), LA + GEM (24 hrs additional, total 48 hrs) 5:1 alpha-lipoic acid to compound ratio after 48 hrs by SRB assay in presence of alpha-lipoic acid; format: functional, cell-based; details: T-24
A549 [38] = test: Cytotoxicity against human A549 cells treated at LA + compound sequent. compound for 24 hrs, LA + compound for 24 hrs additional, total 48 hrs 2:1 and 5:1 alpha-lipoic acid to compound ratio after 48 hrs by SRB assay in presence of alpha-lipoic acid; format: functional, cell-based
MRC5 [39] = test: Cytotoxicity against human MRC5 cells treated at LA + compound sequent. LA for 24 hrs), LA + GEM (24 hrs additional, total 48 hrs) 2:1 alpha-lipoic acid to compound ratio after 48 hrs by SRB assay in presence of alpha-lipoic acid; format: functional, cell-based
A549 [40] = test: Induction of H2O2 level in human A549 cells at 1 uM after 5 to 30 mins by flow cytometry; format: functional, cell-based
A549 [41] = test: Cytotoxicity against human A549 cells assessed as dose reduction index ratio treated at sequential combination at 5:1 alpha-lipoic acid to compound ratio after 48 hrs by SRB assay in presence of alpha-lipoic acid; format: functional
MRC5 [42] = test: Cytotoxicity against human MRC5 cells treated at LA + compound sequent. compound for 24 hrs, LA + compound for 24 hrs additional, total 48 hrs 2:1 and 5:1 alpha-lipoic acid to compound ratio after 48 hrs by SRB assay in presence of alpha-lipoic acid; format: functional, cell-based

## Nc1ccn([C@@H]2O[C@H](COC(=O)CCCC[C@@H]3CCSS3)[C@@H](O)C2(F)F)c(=O)n1
T-24 [1]
  Ratio: 1.3
[2]
  pIC50: 8.28
T-24 [3]
  inhibition: Dose-dependent effect
A549 [4]
  Ratio: 1.54
A549 [5]
  Activity: Active
A549 [6]
  inhibition: Dose-dependent effect
  pIC50: > 8.36
MRC5 [7]
  inhibition: Dose-dependent effect
  pIC50: 8.30
MRC5 [8]
  Ratio: 1.24

## O=C(O)CCCCC1CCSS1 (stereo not drawn) [LIPOIC ACID, ALPHA]
A549 [9]
  Inhibition_index: 1572.29
[2]
  pIC50: < 4.00
T-24 [3]
  inhibition: Dose-dependent effect
A549 [10]
  Ratio: 0.85
A549 [11]
  Ratio: 0.8
A549 [12]
  Inhibition_index: 1243.87
A549 [13]
  Ratio: 0.9
A549 [14]
  Activity: Active
A549 [6]
  inhibition: Dose-dependent effect
  pIC50: < 4.00
MRC5 [7]
  inhibition: Dose-dependent effect
  pIC50: < 4.00
A549 [15]
  Inhibition_index: 488.47

## Nc1ccn([C@@H]2O[C@H](CO)[C@@H](O)C2(F)F)c(=O)n1 [GEMCITABINE]
A549 [16]
  pIC50: > 8.41
MRC5 [17]
  CI: 8.15
[2]
  pIC50: 8.16
T-24 [3]
  inhibition: Dose-dependent effect
MRC5 [18]
  CI: 2.73
MRC5 [19]
  pIC50: 8.17
A549 [20]
  CI: >1
MRC5 [21]
  CI: 2.06
A549 [22]
  Inhibition_index: 5.76
A549 [23]
  CI: <1
A549 [24]
  Ratio: 0.65
A549 [25]
  CI: >1
A549 [26]
  pIC50: 7.54
A549 [27]
  Ratio: 0.1
A549 [28]
  Ratio: 0.6
[29]
  pIC50: > 8.41
A549 [30]
  Inhibition_index: 1.71
A549 [31]
  pIC50: < 6.00
A549 [6]
  inhibition: Dose-dependent effect
  pIC50: 8.17
A549 [32]
  Inhibition_index: 4.22
[33]
  pIC50: 7.74
[34]
  pIC50: > 8.41
MRC5 [7]
  inhibition: Dose-dependent effect
  pIC50: 8.20
MRC5 [35]
  CI: 7.88
MRC5 [36]
  pIC50: > 8.41
[37]
  pIC50: 7.77
A549 [38]
  pIC50: 8.41
MRC5 [39]
  pIC50: 7.67
A549 [40]
  Activity: inactive
A549 [41]
  Inhibition_index: 1.67
MRC5 [42]
  pIC50: > 8.41
